From paper PMC10911062, “Identification and structural validation of purine nucleoside phosphorylase from Plasmodium falciparum as a target of MMV000848” (The Journal of Biological Chemistry, 2023)
Where two headings read alike, the source gives them in different places.

Assays:
[1] = biological target: T1, Purine nucleoside phosphorylase (PfPNP) (Plasmodium falciparum, UniProt Q8I3X4); assay: xanthine oxidase-coupled inosine phosphorolysis assay; format: biochemical
T1 construct: gene PNP
T1 sequence (Q8I3X4 1-245): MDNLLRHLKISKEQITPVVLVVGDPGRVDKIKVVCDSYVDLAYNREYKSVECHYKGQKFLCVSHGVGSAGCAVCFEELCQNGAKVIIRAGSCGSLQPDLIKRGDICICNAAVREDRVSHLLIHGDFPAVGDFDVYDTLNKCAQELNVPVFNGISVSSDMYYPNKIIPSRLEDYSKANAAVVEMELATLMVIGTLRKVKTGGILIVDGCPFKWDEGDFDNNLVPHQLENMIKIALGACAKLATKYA

[2] = biological target: T1, Purine nucleoside phosphorylase (PfPNP); assay: Michaelis-Menten kinetics of the purified enzyme; format: biochemical
Falcilysin = biological target: T2, Falcilysin (Plasmodium falciparum, UniProt Q76NL8); assay: MS-CETSA (ITDR), intact infected erythrocytes and parasite lysate; minimal dose threshold; format: cell-based
T2 construct: gene FLN
T2 sequence (Q76NL8 whole entry): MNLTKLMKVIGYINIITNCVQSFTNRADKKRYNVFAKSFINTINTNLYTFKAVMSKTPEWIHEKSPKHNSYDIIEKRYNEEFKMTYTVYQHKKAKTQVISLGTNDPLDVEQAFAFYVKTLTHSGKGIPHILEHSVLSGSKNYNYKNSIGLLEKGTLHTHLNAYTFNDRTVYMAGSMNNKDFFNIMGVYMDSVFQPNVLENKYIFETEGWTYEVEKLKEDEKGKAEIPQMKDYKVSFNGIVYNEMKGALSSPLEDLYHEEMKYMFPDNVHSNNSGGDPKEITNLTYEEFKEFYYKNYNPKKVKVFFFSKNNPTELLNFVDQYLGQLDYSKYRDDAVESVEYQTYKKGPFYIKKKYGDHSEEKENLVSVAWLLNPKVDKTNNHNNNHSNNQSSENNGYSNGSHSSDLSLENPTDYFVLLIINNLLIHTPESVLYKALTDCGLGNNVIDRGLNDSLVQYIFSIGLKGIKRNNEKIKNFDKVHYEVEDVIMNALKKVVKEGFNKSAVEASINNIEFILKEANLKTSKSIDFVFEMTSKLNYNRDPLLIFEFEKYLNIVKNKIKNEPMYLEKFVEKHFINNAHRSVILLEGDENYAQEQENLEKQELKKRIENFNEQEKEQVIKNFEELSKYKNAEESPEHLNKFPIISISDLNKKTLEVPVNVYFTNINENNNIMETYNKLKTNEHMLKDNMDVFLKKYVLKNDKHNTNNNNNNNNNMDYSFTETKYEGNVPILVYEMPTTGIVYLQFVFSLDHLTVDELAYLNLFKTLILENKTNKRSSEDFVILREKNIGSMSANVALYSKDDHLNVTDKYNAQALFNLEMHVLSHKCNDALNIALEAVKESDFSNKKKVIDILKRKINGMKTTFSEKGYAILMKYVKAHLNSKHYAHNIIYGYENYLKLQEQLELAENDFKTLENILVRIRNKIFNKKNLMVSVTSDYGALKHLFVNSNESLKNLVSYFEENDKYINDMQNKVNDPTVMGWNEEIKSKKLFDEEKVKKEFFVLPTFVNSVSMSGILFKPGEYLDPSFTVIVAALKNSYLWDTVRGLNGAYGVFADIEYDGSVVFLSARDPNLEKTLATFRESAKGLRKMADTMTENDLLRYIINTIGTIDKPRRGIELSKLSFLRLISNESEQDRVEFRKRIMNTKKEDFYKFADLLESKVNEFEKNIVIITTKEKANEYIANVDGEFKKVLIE

[3] = biological target: T1, Purine nucleoside phosphorylase (PfPNP); assay: ITC; cocrystal structure at […] Å; also DSF, CETSA and enzyme inhibition (IC50 […], Ki […]); format: binding
[4] = biological target: the molecule itself; assay: crystal structure; co-crystal of PfPNP (37 mg/ml) with 3 mM MMV000848, sitting-drop vapor diffusion at 20 °C, 10% (w/v) PEG 1000; 1.85 Å, space group R32; hexamer formed through crystallographic symmetry

Molecule: C=C[C@H]1C[N@@]2CC[C@H]1C[C@H]2[C@H](O)c1ccnc2ccc(OC)cc12 [quinine]
- IC50 ([1]; read-out: IC50): 11.3 µM

Molecule: O=c1[nH]cnc2c1ncn2[C@@H]1O[C@H](CO)[C@@H](O)[C@H]1O [inosine]
- Michaelis-Menten kinetics of the purified enzyme [2]: Measurements of KM,app (apparent KM) of inosine was made in the presence of various concentrations of MMV000848

Molecule: OC(c1cc(C(F)(F)F)nc2c(C(F)(F)F)cccc12)C1CCCCN1 (racemic) [mefloquine]
- IC50 [1]: 327 µM

Molecule: OC(CNC1CCCC1)Cn1c2ccccc2c2ccccc21 (stereo not drawn) [MMV000848, 1-carbazol-9-yl-3-cyclopentylamino-propan-2-ol]
- MDT (Falcilysin): 749.91 nM
- Kd [3]: 1.52 µM

B1: Plasmodium falciparum purine nucleoside phosphorylase (enzyme)
chain: MDNLLRHLKISKEQITPVVLVVGDPGRVDKIKVVCDSYVDLAYNREYKSVECHYKGQKFLCVSHGVGSAGCAVCFEELCQNGAKVIIRAGSCGSLQPDLIKRGDICICNAAVREDRVSHLLIHGDFPAVGDFDVYDTLNKCAQELNVPVFNGISVSSDMYYPNKIIPSRLEDYSKANAAVVEMELATLMVIGTLRKVKTGGILIVDGCPFKWDEGDFDNNLVPHQLENMIKIALGACAKLATKYA
notes: Purine nucleoside phosphorylase of Plasmodium falciparum, PlasmoDB PF3D7_0513300; gene subcloned into pNIC-CH; Homo-hexamer (three 2-fold symmetrical dimers around a crystallographic three-fold axis); one protein chain in the asymmetric unit; also called PfPNP; PNP; source: Rosetta BL21-DE3 Escherichia coli, purified (IMAC on HisTrapHP, SEC on Superdex 200)
- stoichiometry N [4]: 6
